Test results: patent publication US20240383856A1 (Zedira GmbH, priority 2021, published 2024)
pIC50: −log10 of the molar value.

Experiments:
[1] = molecular target: T1, recombinant human transglutaminase 2 (Homo sapiens, UniProt P21980); test: Transglutaminase assay (DCC-assay): incorporation of dansylcadaverine into dimethylcasein; format: biochemical; conditions: recombinant human TG2 10 nM; dansylcadaverine incorporation into dimethylcasein; read-out: IC50 TG2
T1 construct: purchased Zedira T022
T1 sequence (P21980 1-687): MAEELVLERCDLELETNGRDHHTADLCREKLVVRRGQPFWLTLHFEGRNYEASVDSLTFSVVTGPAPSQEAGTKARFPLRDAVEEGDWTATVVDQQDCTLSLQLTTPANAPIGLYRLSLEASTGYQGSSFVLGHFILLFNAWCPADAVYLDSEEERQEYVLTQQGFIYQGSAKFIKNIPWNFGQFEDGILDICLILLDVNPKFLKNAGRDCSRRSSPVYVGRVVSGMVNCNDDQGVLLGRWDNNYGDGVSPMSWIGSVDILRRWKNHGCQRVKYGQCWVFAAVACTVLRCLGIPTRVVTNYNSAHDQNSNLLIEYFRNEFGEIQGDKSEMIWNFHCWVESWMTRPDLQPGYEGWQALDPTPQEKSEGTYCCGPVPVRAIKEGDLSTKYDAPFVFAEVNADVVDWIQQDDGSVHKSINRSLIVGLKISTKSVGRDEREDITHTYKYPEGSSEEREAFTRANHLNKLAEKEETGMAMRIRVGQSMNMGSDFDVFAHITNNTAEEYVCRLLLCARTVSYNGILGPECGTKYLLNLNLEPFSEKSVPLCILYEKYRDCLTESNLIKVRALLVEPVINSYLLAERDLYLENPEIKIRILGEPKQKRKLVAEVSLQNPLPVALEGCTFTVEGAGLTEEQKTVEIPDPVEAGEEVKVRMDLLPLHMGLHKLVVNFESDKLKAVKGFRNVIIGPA
Outline: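 Recombinant human TG2 (10 nM final) incorporates dansylcadaverine into N,N-dimethylcasein. Reaction mix: 50 mM Tris-HCl, 10 mM CaCl2, 10 mM glutathione, 2.5% glycerol, 16.7 µM dansylcadaverine, 4 µM dimethylcasein, 200 mM NaCl, pH 8.0. Fluorescence (ex 330/em 500 nm) was followed 30 min at 37 °C; the 20–30 min slope, expressed as % of 2% DMSO control, gave IC50.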

[2] = logD by shake flask method (octanol / PBS pH 7.4, HPLC); format: physicochemical; conditions: octanol / PBS pH 7.4, shake flask
Outline: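 Shake-flask partition of compound between octanol and phosphate-buffered saline at pH 7.4, with each phase quantified by HPLC to give LogD.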

[3] = Caco-2 permeability assay (CacoReady kit); format: in vitro ADME; conditions: human, Caco-2, Caco-2 barrier, CacoReady kit; above 1×10^−6 cm/s classified as permeable
Outline: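 Papp values come from Caco-2 barrier studies intended to predict oral bioavailability; the manufacturer's procedure for the ready-made kit was followed.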

SMILES | pIC50 [1] | logD [2] | Papp [3]
CNC(=O)C(=O)CC[C@H](NC(=O)c1cncc([N+](=O)[O-])c1)C(=O)Nc1cccn(CC(=O)NC2C3CC4CC(C3)CC2C4)c1=O (stereo partly drawn) [II-63, (S)-N1-(1-(2-(2-adamantylamino)-2-oxoethyl)-2-oxo-1,2-dihydropyridin-3-yl)-N6-methyl-2-(5-nitronicotinamido)-5-oxohexanediamide] | > 7.40 | 1 to 3 | < 1 ×10⁻⁶ cm/s
CNC(=O)C(=O)CC[C@H](NC(=O)c1cncc(C(=O)O)c1)C(=O)Nc1cccn(CC(=O)NC2C3CC4CC(C3)CC2C4)c1=O (stereo partly drawn) [II-64, (S)-5-(1-(1-(2-(2-adamantylamino)-2-oxoethyl)-2-oxo-1,2-dihydropyridin-3-ylamino)-6-(methylamino)-1,5,6-trioxohexan-2-ylcarbamoyl)nicotinic acid] | 6.40 to 7.40 | 1 to 3 | < 1 ×10⁻⁶ cm/s
CNC(=O)C(=O)CC[C@H](NC(=O)c1cncc(C(=O)OC)c1)C(=O)Nc1cccn(CC(=O)NC2C3CC4CC(C3)CC2C4)c1=O (stereo partly drawn) [II-65, (S)-methyl 5-(1-(1-(2-(2-adamantylamino)-2-oxoethyl)-2-oxo-1,2-dihydropyridin-3-ylamino)-6-(methylamino)-1,5,6-trioxohexan-2-ylcarbamoyl)nicotinate] | 6.40 to 7.40 | 1 to 3 | < 1 ×10⁻⁶ cm/s
CNC(=O)C(=O)CC[C@H](NC(=O)c1oc2ccccc2c1C)C(=O)Nc1cccn(CC(=O)N(C)C2C3CC4CC(C3)CC2C4)c1=O (stereo partly drawn) [II-67, (S)-N1-(1-(2-(2-adamantyl(methyl)amino)-2-oxoethyl)-2-oxo-1,2-dihydropyridin-3-yl)-N6-methyl-2-(3-methylbenzofuran-2-carboxamido)-5-oxohexanediamide] | 5.60 to 6.40 | 3 to 5 | 1 to 10 ×10⁻⁶ cm/s
CNC(=O)C(=O)CC[C@H](NC(=O)c1oc2ccccc2c1C)C(=O)Nc1cccn(CC(=O)NC2C3CC4CC2CC(F)(C4)C3)c1=O (stereo partly drawn) [II-69, (S)-N1-(1-(2-(5-fluoroadamantane-2-amino)-2-oxoethyl)-2-oxo-1,2-dihydropyridin-3-yl)-N6-methyl-2-(3-methylbenzofuran-2-carboxamido)-5-oxohexanediamide] | > 7.40 | 1 to 3 | 1 to 10 ×10⁻⁶ cm/s
CNC(=O)C(=O)CC[C@H](NC(=O)c1oc2ccccc2c1C)C(=O)Nc1cccn(CC(=O)NC2C3CC4CC2CC(Br)(C4)C3)c1=O (stereo partly drawn) [II-71, (S)-N1-(1-(2-(5-bromoadamantane-2-amino)-2-oxoethyl)-2-oxo-1,2-dihydropyridin-3-yl)-N6-methyl-2-(3-methylbenzofuran-2-carboxamido)-5-oxohexanediamide] | > 7.40 | 1 to 3 | 1 to 10 ×10⁻⁶ cm/s
CNC(=O)C(=O)CC[C@H](NC(=O)c1oc2ccccc2c1C)C(=O)Nc1cccn(CC(=O)NC2(C(=O)OC)C3CC4CC(C3)CC2C4)c1=O (stereo partly drawn) [II-74, (S)-N1-(1-(2-(2-methyladamantane-2-carboxylate-2-amino)-2-oxoethyl)-2-oxo-1,2-dihydropyridin-3-yl)-N6-methyl-2-(3-methylbenzofuran-2-carboxamido)-5-oxohexanediamide] | 5.60 to 6.40 | 1 to 3 | < 1 ×10⁻⁶ cm/s

Next, values leading:

pIC50 [1] | logD [2] | Papp [3] | SMILES
5.60 to 6.40 | 1 to 3 | < 1 ×10⁻⁶ cm/s | CNC(=O)C(=O)CC[C@H](NC(=O)c1c(C)nc2sccn12)C(=O)Nc1cccn(CC(=O)NC2C3CC4CC(C3)CC2C4)c1=O (stereo partly drawn) [II-66, (S)-N1-(1-(2-(2-adamantylamino)-2-oxoethyl)-2-oxo-1,2-dihydropyridin-3-yl)-N6-methyl-2-(6-methylimidazo[2,1-b]thiazole-5-carboxamido)-5-oxohexanediamide]
6.40 to 7.40 | < 1 | < 1 ×10⁻⁶ cm/s | CNC(=O)C(=O)CC[C@H](NC(=O)c1oc2ccccc2c1C)C(=O)Nc1cccn(CC(=O)NC2C3CC4CC2CC(O)(C4)C3)c1=O (stereo partly drawn) [II-68, (S)-N1-(1-(2-(5-hydroxyadamantane-2-amino)-2-oxoethyl)-2-oxo-1,2-dihydropyridin-3-yl)-N6-methyl-2-(3-methylbenzofuran-2-carboxamido)-5-oxohexanediamide]
> 7.40 | 1 to 3 | 1 to 10 ×10⁻⁶ cm/s | CNC(=O)C(=O)CC[C@H](NC(=O)c1oc2ccccc2c1C)C(=O)Nc1cccn(CC(=O)NC2C3CC4CC2CC(Cl)(C4)C3)c1=O (stereo partly drawn) [II-70, (S)-N1-(1-(2-(5-chloroadamantane-2-amino)-2-oxoethyl)-2-oxo-1,2-dihydropyridin-3-yl)-N6-methyl-2-(3-methylbenzofuran-2-carboxamido)-5-oxohexanediamide]
> 7.40 | 3 to 5 | < 1 ×10⁻⁶ cm/s | CNC(=O)C(=O)CC[C@H](NC(=O)c1oc2ccccc2c1C)C(=O)Nc1cccn(CC(=O)NC2C3CC4CC2CC(C)(C4)C3)c1=O (stereo partly drawn) [II-72, (S)-N1-(1-(2-(5-methyladamantane-2-amino)-2-oxoethyl)-2-oxo-1,2-dihydropyridin-3-yl)-N6-methyl-2-(3-methylbenzofuran-2-carboxamido)-5-oxohexanediamide]
6.40 to 7.40 | 1 to 3 | < 1 ×10⁻⁶ cm/s | CNC(=O)C(=O)CC[C@H](NC(=O)c1oc2ccccc2c1C)C(=O)Nc1cccn(CC(=O)NC2(C#N)C3CC4CC(C3)CC2C4)c1=O (stereo partly drawn) [II-73, (S)-N1-(1-(2-(2-carbonitrileadamantane-2-amino)-2-oxoethyl)-2-oxo-1,2-dihydropyridin-3-yl)-N6-methyl-2-(3-methylbenzofuran-2-carboxamido)-5-oxohexanediamide]
6.40 to 7.40 | 3 to 5 | 1 to 10 ×10⁻⁶ cm/s | CNC(=O)C(=O)CC[C@H](NC(=O)c1oc2ccccc2c1C)C(=O)Nc1cccn(CC(=O)NCC23CC4CC(CC(C4)C2)C3)c1=O [II-87, (S)-N1-(1-(2-(1-adamantylmethylamino)-2-oxoethyl)-2-oxo-1,2-dihydropyridin-3-yl)-N6-methyl-2-(3-methylbenzofuran-2-carboxamido)-5-oxohexanediamide]
6.40 to 7.40 | 3 to 5 | < 1 ×10⁻⁶ cm/s | CNC(=O)C(=O)CC[C@H](NC(=O)c1cc2ccccc2o1)C(=O)Nc1cccn(CC(=O)NC(C)C23CC4CC(CC(C4)C2)C3)c1=O (stereo partly drawn) [II-88]
6.40 to 7.40 | 1 to 3 | < 1 ×10⁻⁶ cm/s | CNC(=O)C(=O)CC[C@H](NC(=O)c1oc2ccccc2c1C)C(=O)Nc1cccn(CC(=O)N[C@H]2C[C@H]3CC[C@@H]2C3)c1=O [II-90, (S)-N1-(1-(2-((1R,2S,4S)-bicyclo[2.2.1]heptan-2-ylamino)-2-oxoethyl)-2-oxo-1,2-dihydropyridin-3-yl)-N6-methyl-2-(3-methylbenzofuran-2-carboxamido)-5-oxohexanediamide]
6.40 to 7.40 | 3 to 5 | 1 to 10 ×10⁻⁶ cm/s | CNC(=O)C(=O)CC[C@H](NC(=O)c1oc2ccccc2c1C)C(=O)Nc1cccn(CC(=O)N[C@H]2C[C@H]3CC[C@@]2(C)C3(C)C)c1=O [II-92, (S)-N1-methyl-5-(3-methylbenzofuran-2-carboxamido)-2-oxo-N6-(2-oxo-1-(2-oxo-2-((1S,2S,4R)-1,7,7-trimethylbicyclo[2.2.1]heptan-2-ylamino)ethyl)-1,2-dihydropyridin-3-yl)hexanediamide]
